Measurements taken from patent publication US12398117B2, “Heteroarylamidopyridinol derivative and pharmaceutical composition comprising same as active ingredient for prevention or treatment of autoimmune disease” (INNOVO THERAPEUTICS INC., priority 2019, dated 2025).

What was measured:
[1] = system: DSS-induced chronic enteritis mouse model; assay: Oral efficacy in DSS-induced chronic enteritis mouse model; assay type: in vivo, C57BL/6 mice; conditions: for Morphological observation of colon (length, macroscopic symptoms, adhesions, congestion): DSS mouse, sulfasalazine 300 mg/kg, tofacitinib 30 mg/kg, FIG. 2C; for Body weight recovery rate (%) / Intestinal weight recovery rate (%): chronic enteritis (DSS-water-DSS, total 35 days), mouse
Description: (§1) C57BL/6 mice aged 7-8 weeks were purchased from OrientBio (Korea), stabilized with general solid feed for 7 days, and then used in this experiment. Feed and water were freely supplied during the experiment period, and the temperature of the breeding room was maintained at 25±1° C. and the relative humidity at 50±10%. Lighting management was controlled in a 12-hour light-dark cycle by an automatic lighting controller.
(§2) Enteritis was induced in mice by allowing them to freely ingest drinking water containing 2% DSS salt (M.W. 36,000˜50,000, MP Biomedicals, LLC, OH, USA). For the chronic enteritis model, DSS was administered using a schedule of DSS administration for the first 7 days, administration of normal drinking water for 14 days, repeated administration of DSS for 7 days from the 21st day, and administration of normal drinking water for 7 days. The drug was administered once a day, 6 days a week from the first day of DSS treatment (FIG. 2A). […] In order to measure the dose-dependent therapeutic effect of the drug in the acute enteritis model, DSS was administered for 5 days to induce enteritis, and then the drug was administered for 14 days to measure the degree of recovery and treatment of enteritis (FIG. 3A). The drug was administered orally once daily for […] at a fixed time.
(§3) Changes in body weight of each mouse were observed during the DSS and drug administration using a digital mass meter.
(§4) The colon of the mouse was extracted, and the length and weight from the anus to the cecum were measured.
(§5) Tissue staining was performed in the same manner as in the case of hematoxylin/eosin staining of the rat colon tissue, and scoring indexes of mucosal damage and recovery were applied in the same way.

[2] = system: TNBS-induced inflammatory bowel disease rat model; assay: Oral efficacy in TNBS-induced inflammatory bowel disease rat model; assay type: in vivo, Sprague Dawley rats
Description: as §1, with “Sprague Dawley rats aged” for “C57BL/6 mice aged”, “for 3” for “for 7”
After anesthetizing rats that had been fasted for 24 hours with diethyl ether, 0.8 mL of 5% TNBS diluted with 50v/v % ethanol was slowly injected into the lumen of the colon using a 1 mL syringe connected to a polyethylene catheter, and then, the rats were left standing for 60 seconds in an inverted position in order to prevent 5% TNBS from leaking into the anus. For the control group, only vehicle [50v/v % ethanol] was injected in the same manner as in the other groups (Thapa et al., 2008).
In order to investigate the effect of the drug, the drug was administered at a constant time every day for 5 days from the day after the TNBS treatment.
Changes in body weight of each rat were observed from the fasting stage to the TNBS administration and drug administration process using a digital mass meter.
The colon of the rat was extracted, and the tissue 5-6 cm away from the anus was cut into a length of 1 cm, and the weight of the tissue was measured.
The weighed rat tissues were fixed with 4% paraformaldehyde solution, and then transferred to 30% sucrose solution. When the tissues subside, they were taken out and cut into […] thick using a cryomicrotome (Microm HM 450, Thermo Fisher Scientific, Germany) and stored in a cryopreservation solution. After washing the tissue section with KPBS, the tissue section was attached to a slide glass, dried, and then stained with hematoxylin & Eosin and observed under a microscope.

[3] = system: DSS-induced acute enteritis mouse model; assay: Oral efficacy in DSS-induced acute enteritis mouse model; assay type: in vivo, C57BL/6 mice; conditions: acute enteritis (DSS), mouse
Description: as §1, §2, §3, §4
The degree of neutrophil infiltration in the tissue was measured by the amount of MPO, a neutrophil marker enzyme. The colon tissue with a size of 1 cm was washed with cold PBS and weighed, to which a lysis buffer (pH7.4, 200 mM NaCl, 5 mM EDTA, 10 mM tris, 10% glycerin, 1 mM PMSF, 1 μg/mL leupeptin and 28 μg/mL aprotinin) was added (500 μL of per 10 mg of tissue weight), and then homogenized using Bead Blaster® D2400 homogenizer (Benchmark Scientific, NJ, USA). […] (HK210, Hycult Biotechnology, Netherlands). The supernatant was added to a 96 well plate (100 μL/well) coated with an anti-mouse MPO antibody, and incubated for 1 hour at room temperature, followed by washing 3 times with a washing buffer. A reconstituted tracer was added to the plate (100 μL/well), which was reacted at room temperature for 1 hour, washed 3 times, and then 100 μL of streptavidin-peroxidase conjugate was added to each well of the plate. The plate was reacted at room temperature for 1 hour, washed, and 100 μl of TMB substrate solution was added to each well of the plate, followed by reaction for 30 minutes. The reaction was terminated by adding 100 μL of a stop solution to each well of the plate, and absorbance was measured at 450 nm. MPO activity means the amount of 1 μM […] at 25° C. for 1 minute. This was calculated as the amount of MPO contained in 1 mL of the colon tissue homogenate.
as §5

[4] = system: collagen-induced rheumatoid arthritis animal model; assay: Oral efficacy in collagen-induced rheumatoid arthritis (CIA) mouse model; assay type: in vivo, DBA/1J mice; conditions: oral, up to 35 days, FIG. 5A
Description: 12-week-old normal male mice and arthritis-induced DBA/1J mice were purchased from Central Lab. Animal Inc [To induce arthritis, DBA/1J mice were sensitized by injecting a mixed solution of Complete Freund's Adjuvant (CFA; DIFCO, Detroit, MI) and Bovine Type II collagen (1:1, v/v) intradermally at the pinna base at 8 weeks of age, and then, secondary sensitization was performed by intradermal injection at the tail head at 11 weeks of age]. The purchased arthritis mice were acclimatized to the laboratory environment for a week, and then oral administration of the drug was started.
Visual observation of arthritic lesions was performed using the following scores based on a reference (Barnett et al., 1998).
Therefore, the highest score for arthritic lesions was 16 per mouse.
The hind paw thickness, which is one of the pathological indices of rheumatoid arthritis, was measured using a caliper.
The right hind leg of each mouse was extracted, and all skin and muscles were removed, leaving only the bones and joints. The hind leg was fixed in 4% paraformaldehyde solution for 2 days, then immersed in 10% formic acid for 5 days to decalcify, and then immersed in 30% sucrose solution. When the tissue subsided, the articular tissue was cut into […] thick using a cryomicrotome (Microm HM 450, Thermo Fisher Scientific, Germany) and stored in a cryopreservation solution. Staining was performed using the stored tissue sections. After attaching the tissue sections to the slide glass, they were hydrated with 100%, 95%, 70%, and 50% ethanol solutions, and some were stained with safranin and others were stained with hematoxylin/eosin. For safranin staining, the tissue sections were first stained with 0.1% fast green solution, washed with 1% acetic acid solution, and then stained with 1% safranin solution. Thereafter, the tissue sections were dehydrated by immersing in ethanol solutions in the reverse order of hydration, and then preserved in xylene solution and mounting solution, and photographed under a microscope. Hematoxylin/eosin staining was performed in the same manner as in the colon tissue staining. The tissue sections were dehydrated, preserved in xylene solution and mounting solution, and observed under a microscope.
The degree of microscopic tissue damage of the stained articular tissue was measured using the following scores.
After the spleen and draining lymph nodes of the mice were extracted, the number of immune cells was counted. To confirm the distribution of Th1 and Th17 cells, the immune cells obtained from each organ were stimulated using PMA/Ionomycin and Golgi stop.
After staining using an anti-IFN-γ antibody that can identify Th1 cells, an anti-IL-17 antibody that can identify Th17 cells, and an anti-CD8 antibody that can identify cytotoxic T cells, the proportion of inflammatory cells among the total immune cells was confirmed using flow cytometry.

[5] = system: adhesion of intestinal epithelial cells (HT-29) and monocytic cells (U937) induced by IL-6; assay: Inhibition of IL-6-induced adhesion of monocytes and intestinal epithelial cells; assay type: cell-based, human; conditions: Homo sapiens, 3 h; test drug 1 μM; IL-6 10 ng/mL; HT-29/U937; read-out: inhibitory activity (%)
Description: The inhibitory activity test for intestinal epithelial cell-monocyte adhesion by IL-6 was performed using the same method as in the case of TNF-α. HT-29 cells were cultured in a 24-well plate at the density of 2×10^5 cells/cm^2, and the test drug was pretreated in a medium containing 1% FBS and 1% PS for 1 hour. Thereafter, 10 μg/mL of BCECF-AM was treated thereto and reacted at 37° C. for 30 minutes. U937 cells loaded with BCECF and IL-6 (10 ng/mL) were reacted with HT-29 cells previously treated with the test drug at 37° C. for 3 hours. Upon completion of the reaction, the medium was removed, and the culture flask was washed twice with PBS to remove non-adherent U937 cells. In the next step, the cells were lysed by treating with 0.1% Triton X-100 (0.1 M Tris) and reacted at room temperature for 30 minutes. Then, fluorescence was measured and quantified using a fluostar optima microplate reader (BMG Labtechnologies, Germany).

[6] = 300 mg/kg, dose-dependence test (Table 7)
[7] = 30 mg/kg, listed as tofacitinib

For `O=C(O)c1cc(/N=N/c2ccc(S(=O)(=O)Nc3ccccn3)cc2)ccc1O` [Sulfasalazine, reference compound], the “Morphological observation of colon (length, macroscopic symptoms, adhesions, congestion)” value [1] was “significantly suppressed”, the “Body weight recovery rate (%)” value ([1]; 300 mg/kg) was 22.8% and the “Intestinal weight recovery rate (%)” value ([1]; 300 mg/kg) was 66.9%. For the same compound, the “Intestinal weight recovery rate (%)” value ([1]; 300 mg/kg, listed as sulfasalazine) was 67.3%, the “Body weight recovery rate (%)” value [2, 6] was 86.6% and the “Intestinal weight recovery rate (%)” value [2, 6] was 69.6%. For the same compound, the “Morphological observation of colon (visual symptoms, adhesions, congestion)” value ([2]; after 5 days of drug administration, sulfasalazine 300 mg/kg, X-09 0.3-10 mg/kg) was “significantly suppressed”, the “Intestinal weight recovery rate (%)” value ([2]; oral 300 mg/kg, 5 days, fixed-dose test (Table 6)) was 69.6% and the “Body weight recovery rate (%)” value ([2]; oral 300 mg/kg, 5 days, fixed-dose test (Table 6), 300 mg/kg) was 86.6%. The “Body weight recovery rate (%)” value ([2]; oral 300 mg/kg, 5 days, fixed-dose test (Table 6), listed as sulfasalazine, 300 mg/kg) was 50.5%, the “Body weight recovery rate (%)” value ([3]; 300 mg/kg) was 65.9% and the “Intestinal weight recovery rate (%)” value ([3]; 300 mg/kg) was 66.2%.
In the case of `C[C@@H]1CCN(C(=O)CC#N)C[C@@H]1N(C)c1ncnc2[nH]ccc12` [Tofacitinib, reference compound], the “Morphological observation of colon (length, macroscopic symptoms, adhesions, congestion)” value [1] is reported as “significantly suppressed”, the “Body weight recovery rate (%)” value ([1]; 30 mg/kg) is reported as 29.5% and the “Intestinal weight recovery rate (%)” value ([1]; 30 mg/kg) is reported as 68.2%. The “Body weight recovery rate (%)” value [1, 7] was 29.4%, the “Intestinal weight recovery rate (%)” value [1, 7] was 68.8% and the “degree of arthritis (visual observation score)” value [4] was “significantly improved dose dependently”. For the same compound, the “Body weight recovery rate (%)” value ([3]; 30 mg/kg) was 80.8%, the “Intestinal weight recovery rate (%)” value ([3]; 30 mg/kg) was 80.9% and the “Body weight recovery rate (%)” value [3, 7] was 80.9%. For the same compound, the inhibition at 1 µM [5] was 49.1%.
